From PubChem BioAssay AID2060341 (Molecular Pharmacology Branch, DTP, NCI, 2025)
Where “and” joins values, the source holds several entries; their conditions need not be identical. Equal values may be shown once. Each block holds one compound with its values, some of them ahead of it.

Tested on: 327498-153-R-J2-PDC multicell spheroid viability
Test: Anticancer human tumor 327498-153-R-J2-PDC patient-derived uterine carcinosarcoma cell line growth inhibition [IpAb]
Conditions: for viability, T/C: stronger effect = lower value
How it was run: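 Combinations with ipatasertib or abemaciclib were tested on tumour spheroids holding HUVEC (25%) and MSC (15%) alongside 60% malignant cells. Top concentration was at or near clinical Cmax (10 microM if undefined), descending in half-log steps.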

[1] = curve of first compound, second compound 0.1 µM
[2] = curve of first compound, second compound 0.316 µM
[3] = curve of first compound, second compound 1 µM
[4] = second compound 0.1 µM, first compound 0.0316 µM
[5] = second compound 0.1 µM, first compound 0.1 µM
[6] = second compound 0.1 µM, first compound 0.316 µM
[7] = second compound 0.1 µM, first compound 1 µM
[8] = second compound 0.1 µM, first compound 3.16 µM
[9] = second compound 0.1 µM, first compound 10 µM
[10] = second compound 0.316 µM, first compound 0.0316 µM
[11] = second compound 0.316 µM, first compound 0.1 µM
[12] = second compound 0.316 µM, first compound 0.316 µM
[13] = second compound 0.316 µM, first compound 1 µM
[14] = second compound 0.316 µM, first compound 3.16 µM
[15] = second compound 0.316 µM, first compound 10 µM
[16] = second compound 1 µM, first compound 0.0316 µM
[17] = second compound 1 µM, first compound 0.1 µM
[18] = second compound 1 µM, first compound 0.316 µM
[19] = second compound 1 µM, first compound 1 µM
[20] = second compound 1 µM, first compound 3.16 µM
[21] = second compound 1 µM, first compound 10 µM
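Also: spheroids exposed to agents for 7 days.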
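For viability, T/C in this document: 100% = DMSO vehicle control viability.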

IC50 (curve of compound): > 3 µM and 1.07 µM
Structure (SMILES): Cn1cnc2c(F)c(Nc3ccc(Br)cc3Cl)c(C(=O)NOCCO)cc21
viability, T/C (compound 0.00949 µM): 94% and 97.4%
viability, T/C (compound 0.03 µM): 86.6% and 73.7%
viability, T/C (compound 0.0949 µM): 85.2% and 77.9%
viability, T/C (compound 0.3 µM): 64.3% and 67.1%
viability, T/C (compound 0.949 µM): 69.9% and 51.7%
viability, T/C (compound 3 µM): 49.4% and 36.6%

IC50 (curve of compound): > 10 µM
Structure (SMILES): CCCS(=O)(=O)Nc1ccc(F)c(C(=O)c2c[nH]c3ncc(-c4ccc(Cl)cc4)cc23)c1F
viability, T/C (compound 0.0316 µM): 105% and 102%
viability, T/C (compound 0.1 µM): 116% and 103%
viability, T/C (compound 0.316 µM): 106% and 101%
viability, T/C (compound 1 µM): 106% and 98.7%
viability, T/C (compound 3.16 µM): 101% and 96.1%
viability, T/C (compound 10 µM): 87.3% and 92.8%

The next lines start with the compound.

Structure (SMILES): Cn1nccc1Nc1nccc(-c2ccn(C(CO)c3ccc(Cl)c(F)c3)c(=O)c2)n1 (stereo unspecified) + CC(C)NCC(C(=O)N1CCN(c2ncnc3c2C(C)CC3O)CC1)c1ccc(Cl)cc1
IC50 [1]: 3.26 µM
IC50 [2]: 0.684 µM
IC50 [3]: < 0.0316 µM
IC50 (curve of first compound, second compound 3.16 µM): < 0.0316 µM
IC50 (curve of first compound, second compound 10 µM): < 0.0316 µM
viability, T/C [4]: 87.2%
viability, T/C [5]: 77.7%
viability, T/C [6]: 71.4%
viability, T/C [7]: 71.7%
viability, T/C [8]: 47.9%
viability, T/C [9]: 28.4%
viability, T/C [10]: 68.3%
viability, T/C [11]: 59.6%
viability, T/C [12]: 49.1%
viability, T/C [13]: 51.7%
viability, T/C [14]: 40.9%
viability, T/C [15]: 22.5%
viability, T/C [16]: 49.2%
viability, T/C [17]: 42.4%
viability, T/C [18]: 33.8%
viability, T/C [19]: 38.2%
viability, T/C [20]: 30.5%
viability, T/C [21]: 11.9%
viability, T/C (second compound 3.16 µM, first compound 0.0316 µM): 33.9%
viability, T/C (second compound 3.16 µM, first compound 0.1 µM): 30.4%
viability, T/C (second compound 3.16 µM, first compound 0.316 µM): 28.1%
viability, T/C (second compound 3.16 µM, first compound 1 µM): 27.7%
viability, T/C (second compound 3.16 µM, first compound 3.16 µM): 20%
viability, T/C (second compound 3.16 µM, first compound 10 µM): 9.15%
viability, T/C (second compound 10 µM, first compound 0.0316 µM): 28.5%
viability, T/C (second compound 10 µM, first compound 0.1 µM): 21.5%
viability, T/C (second compound 10 µM, first compound 0.316 µM): 18%
viability, T/C (second compound 10 µM, first compound 1 µM): 17.3%
viability, T/C (second compound 10 µM, first compound 3.16 µM): 15.8%
viability, T/C (second compound 10 µM, first compound 10 µM): 4.13%

Structure (SMILES): CCCS(=O)(=O)Nc1ccc(F)c(C(=O)c2c[nH]c3ncc(-c4ccc(Cl)cc4)cc23)c1F + CCN1CCN(Cc2ccc(Nc3ncc(F)c(-c4cc(F)c5nc(C)n(C(C)C)c5c4)n3)nc2)CC1
IC50 (curve of first compound, second compound 0.01 µM): > 10 µM
IC50 (curve of first compound, second compound 0.0316 µM): > 10 µM
IC50 [1]: > 10 µM
IC50 [2]: > 10 µM
IC50 [3]: > 10 µM
viability, T/C (second compound 0.01 µM, first compound 0.0316 µM): 107%
viability, T/C (second compound 0.01 µM, first compound 0.1 µM): 105%
viability, T/C (second compound 0.01 µM, first compound 0.316 µM): 104%
viability, T/C (second compound 0.01 µM, first compound 1 µM): 108%
viability, T/C (second compound 0.01 µM, first compound 3.16 µM): 98.1%
viability, T/C (second compound 0.01 µM, first compound 10 µM): 97.3%
viability, T/C (second compound 0.0316 µM, first compound 0.0316 µM): 81%
viability, T/C (second compound 0.0316 µM, first compound 0.1 µM): 88.7%
viability, T/C (second compound 0.0316 µM, first compound 0.316 µM): 85.6%
viability, T/C (second compound 0.0316 µM, first compound 1 µM): 99.5%
viability, T/C (second compound 0.0316 µM, first compound 3.16 µM): 94.2%
viability, T/C (second compound 0.0316 µM, first compound 10 µM): 86.9%
viability, T/C [4]: 73.4%
viability, T/C [5]: 77.8%
viability, T/C [6]: 77.2%
viability, T/C [7]: 78.5%
viability, T/C [8]: 76.6%
viability, T/C [9]: 70.8%
viability, T/C [10]: 70.6%
viability, T/C [11]: 70.2%
viability, T/C [12]: 63.8%
viability, T/C [13]: 76.1%
viability, T/C [14]: 73.1%
viability, T/C [15]: 70.4%
viability, T/C [16]: 58.9%
viability, T/C [17]: 70.9%
viability, T/C [18]: 72.8%
viability, T/C [19]: 68.3%
viability, T/C [20]: 68.3%
viability, T/C [21]: 63.2%

Structure (SMILES): Cn1ncc(Cl)c1-c1cc(C(=O)NC(CN)Cc2cccc(F)c2)sc1Cl (stereo unspecified)
viability, T/C (compound 0.0316 µM): 98.6% and 91.8%
viability, T/C (compound 0.1 µM): 85.3% and 76%
viability, T/C (compound 0.316 µM): 74.4% and 67.2%
viability, T/C (compound 1 µM): 53.1% and 49%
viability, T/C (compound 3.16 µM): 42.2% and 36.7%
viability, T/C (compound 10 µM): 0.31% and 0.21%
IC50 (curve of compound): 1.48 µM and 1.1 µM
